Test results published in US20260216085A1, “NANOPARTICLES TO ENHANCE THE EFFECTS OF DRUGS FOR THE TREATMENT OF CANCER” (UNIVERSIDAD DE GRANADA, priority 2022, published 2026).

How the values were obtained:
[1] = Release kinetics / degradation of OLA and AA in PBS by UV-Vis; assay type: physicochemical; conditions: buffer, pH 7.4
Procedure: Briefly, 0.9 mg of NP was weighed into a quartz cuvette and then 3 mL of PBS solution (pH=7.4) was carefully added to the cuvette. The absorbance curve from 200 nm to 400 nm was measured continuously every half hour until the plateau was reached. The amount of OLA and ascorbic acid released was determined at wavelengths of 311 nm and 265 nm, respectively. This technique allowed simultaneous quantification of the two molecules by monitoring the absorbance at 311 nm (OLA) and 265 nm (AA) (FIG. 1).
All measurements were performed in triplicate.
The degradation of AA followed an exponential decay according to the equation y(t)=e^−t/τ, where τ corresponds to the half-life of the molecule.

[2] = tested on: PANC-1 cell migration; test: Cell migration assay; assay type: cell-based, Human; conditions: PANC-1, Cl25 of OLA, monitored 72 h
Procedure: PANC-1 cell migration is a phenomenon related to PARP1 inhibition. To study the effect of NP-ACP-OLA-AA with respect to free OLA and OLA-NPs, the following treatment was carried out with the PANC-1 cell line. NP-ACP-AA was used as a control.
The PANC- 1 cell line was seeded in a 12-well plate (Thermo Fisher) and grown to 95-100% confluence in medium supplemented with DMEM (Sigma-Aldrich). Then, a […] was manually performed using a pipette tip. The next day, dead cells were removed using phosphate buffered saline (PBS) and the culture medium was replaced with DMEM without FBS to prevent cell proliferation. Then, Cl25 of OLA concentration (free and OLA-NPs) was added to the wells and the cells were incubated for 72 h during which the migratory process was monitored using a DM-IL LED microscope. The percentage of migration was calculated by measuring the tumor cell free area at different times using ImageJ software with the Chemotaxis and Migration Tool add-on.

[3] = tested on: PANC-1-induced tumors; test: In vivo tumor growth and survival, mice with PANC-1-induced tumors; conditions: 25 mg/kg OLA intraperitoneally every 3 days, 10 cycles
Procedure: Male and female NOD scid gamma mice generated by the Centro de Instrumentación Científica of the University of Granada were used for the in vivo study. All mice (body weight: 20-25 g) were housed in cages with free access to water and food prior to the experiments and were maintained under controlled temperature, light and humidity (22.0±2° C., 12 h light-dark cycle and 40-70% relative humidity), in specific pathogen-free conditions with sterile atmosphere controlled by HEPA filters. The study was approved by the Ethical Committee for Animal Experimentation of the University of Granada (reference code: 16/01/2020/005) and was performed in accordance with its guidelines. Tumors were induced by subcutaneous injection of 9×10^5 cells derived from the PANC1 cell line into the right flank of NOD-SCID gamma mice. When the tumor was palpable, animals were randomly divided into four groups (n=8-10 mice per group, selecting the tumor-inducing mice): PANC1 mice treated with OLA solvent-(group I), OLA (group II), NP-ACP-AA (group III) and NP-ACP-OLA-AA (group IV). The OLA solvent was 5% DMSO, 40% PEG300, 5% Tween-80 and 50% saline and the NPs were dispersed in saline. […] Weights and deaths were carefully recorded throughout the period and tumor volume was measured with a digital caliper. Tumor volume (mm^3) was calculated as follows: V (mm^3)=(a×b2×π)/6. […]

[4] = tested on: PANC-1; test: Cytotoxicity, Sulforhodamine B proliferation assay; assay type: cell-based, Human
Procedure: Human pancreatic ductal adenocarcinoma cell lines MIA PaCa-2 and PANC1 and the murine pancreatic cancer cell line Panc02 were used. All cell lines were cultured in Dulbecco's modified Eagle medium (DMEM) supplemented with 10% fetal bovine serum and 1% streptomycin penicillin (Sigma-Aldrich). Cells were maintained in monolayer culture in an atmosphere of 37° C. and 5% CO2 and passaged using 0.25% trypsin and 0.02% EDTA.
Panc02, PANC-1 and MIA PaCa-2 cell lines were treated with NP-ACP-OLA and NP-ACP-OLA-AA to determine their cytotoxic effect. The toxicity of NP-ACP and NP-ACP-AA (controls) was tested in all cell lines. For this, PANC-1 cells were seeded at densities of 8×10^3 cells/well and Panc02 and MIA PaCa-2 cells at densities of 2.5×10^3 cells/well in 48-well plates, incubated overnight and exposed to DMSO (OLA solvent), OLA (in different concentration ranges depending on the cell line used), NPs with and without OLA and ascorbic acid for 72 h. Subsequently, the cells were fixed with 10% trichloroacetic acid for 20 minutes and washed three times with distilled water. […] Finally, the optical density (OD) of the dye was measured with a Titertek Multiskan colorimeter (Flow) at 492 nm. Proliferation percentages (Pf %) were calculated as: Pf %=(OD of sample/OD of negative control)×100. […]

Row | SMILES | time AA remained before being degraded ([1]; 10.5 ppm) [h] | half-life at 10.5 ppm [1] [h] | inhibition of cell migration compared to untreated cells [2] | decrease in tumor volume compared to untreated control mice [3] [%] | survival of mice [3] [%] | Cl50 in PANC-1 higher than in MIA PaCa-2 ([4]; PANC-1 vs MIA PaCa-2) [times] | Cl50 in PANC-1 higher than in Panc02 ([4]; PANC-1 vs Panc02) [times]
1 | O=C1O[C@H]([C@@H](O)CO)C(O)=C1O [AA, ascorbic acid] | ≤ 12 | 2.7 | – | – | – | – | –
2 | O=C(c1cc(Cc2n[nH]c(=O)c3ccccc23)ccc1F)N1CCN(C(=O)C2CC2)CC1 [OLA, Olaparib] | – | – | inhibited migration only at 72 hours | 28.3 | 44 | 8.5 | 7.5
